Measured values taken from patent US10030027B2, “Soluble guanylate cyclase stimulators” (MERCK SHARP & DOHME CORP., priority 2015, dated 2018).

Columns and labels:
[1] = biological target: sGC α1/β1 heterodimer (Homo sapiens (Human), UniProt Q02108+Q02153); assay: Cell-based sGC functional assay (cyclic GMP assay for sGC activator: CASA assay); design: % Activation: concentration or dose not given beside the values; details: CHO-K1/sGC cells; for Emax: CHO-K1, activity expressed as percentage of compound A (standard), read-out: % Activation; for EC50: inflection point, 4P fit, read-out: IP; for % Activation: activity expressed as percentage of compound A (standard)
How it was run: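 CHO-K1 cells stably expressing human sGC α1/β1 were pre-incubated 30 min at 25° C with or without 1 μM DETA-NO, then exposed to compound for 1 hr at 37° C with 0.5 mM IBMX and 2.5% DMSO final. Intracellular cGMP was measured by HTRF, expressed as % of reference sGC-HDA maximum; inflection point and maximum fold induction came from 4-parameter fits.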

[2] = biological target: human recombinant sGC enzyme (Homo sapiens (Human), UniProt Q02108+Q02153); assay: Size Exclusion Chromatography (SEC) competition binding assay using [3H] Ex-77B as the radioligand; details: [3H] Ex-77B radioligand, 24 hours at 37° C.
How it was run: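 Recombinant human sGC binding measured by competition against tritiated Ex-77B radioligand, with non-specific binding defined by 1 μM unlabeled Ex-77B.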

Row | Compound | Emax [1] [%] | EC50 [1] [nM] | Ki [2] [nM] | % Activation [1] [%]
1 | CC1(c2ccc(-c3nn[nH]n3)cc2)C(=O)Nc2nc(-c3nn(Cc4ccccc4F)c4cc(F)ccc34)nc(N)c21 (centres unmarked) [Example 250B, 4-amino-2-[6-fluoro-1-(2-fluorobenzyl)-1H-indazol-3-yl]-5-methyl-5-[4-(1H-tetrazol-5-yl)phenyl]-5,7-dihydro-6H-pyrrolo[2,3-d] pyrimidin-6-one] | 102 | 1700 | 0.108 | –
2 | CC(C)(Cc1csc([C@]2(C)C(=O)Nc3nc(-c4nn(Cc5ccc(F)cc5)c5cc(Cl)ccc45)nc(N)c32)n1)C(=O)O [Example 174A, (S)-3-(2-{4-amino-2-[6-chloro-1-(4-fluorobenzyl)-1H-indazol-3-yl]-5-methyl-6-oxo-6,7-dihydro-5H-pyrrolo[2,3-d]pyrimidin-5-yl}-1,3-thiazol-4-yl)-2,2-dimethyl-propanoic acid] | 121 | 682 | 0.173 | –
3 | Cc1cccc(Cn2nc(-c3nc(N)c4c(n3)NC(=O)C4(C)c3nc(CC(C)(C)C(=O)O)co3)c3ccccc32)c1 (centres unmarked) [Example 226A, 3-(2-{4-amino-5-methyl-2-[1-(3-methylbenzyl)-1H-indazol-3-yl]-6-oxo-6,7-dihydro-5H-pyrrolo[2,3-d]pyrimidin-5-yl}-1,3-oxazol-4-yl)-2,2-dimethyl-propanoic acid] | 112 | 355 | 0.176 | –
4 | CC(C)(Cc1csc([C@]2(C)C(=O)Nc3nc(-c4nn(CC5CCCCO5)c5ncccc45)nc(N)c32)n1)C(=O)O (single isomer, unassigned) [Example 123AB] | – | 1960 | 0.874 | 95.8
5 | CC(C)(CCc1coc(C2(C)C(=O)Nc3nc(-c4nn(Cc5cccc(F)c5)c5cc(Cl)ccc45)nc(N)c32)n1)C(=O)O (centres unmarked) [Example 177B, 4-(2-{4-amino-2-[6-chloro-1-(3-fluorobenzyl)-1H-indazol-3-yl]-5-methyl-6-oxo-6,7-dihydro-5H-pyrrolo[2,3-d]pyrimidin-5-yl}-1,3-oxazol-4-yl)-2,2-dimethyl-butanoic acid] | 126 | 351 | 0.118 | –
6 | C[C@@]1(c2ccc(CCC(=O)O)cc2)C(=O)Nc2nc(-c3nn(CCCC(F)(F)F)c4nc(Cl)ccc34)nc(N)c21 [Example 19B, (S)-3-(4-{4-amino-2-[6-chloro-1-(4,4,4-trifluorobutyl)-1H-pyrazolo[3,4-b]pyridin-3-yl]-5-methyl-6-oxo-6,7-dihydro-5H-pyrrolo[2,3-d]pyrimidin-5-yl}phenyl)propanoic acid] | 89 | 1040 | 0.286 | –
7 | CC1(c2cccc(-c3nn[nH]n3)c2)C(=O)Nc2nc(-c3nn(CCC(F)(F)C(F)(F)F)c4ncccc34)nc(N)c21 (single isomer, unassigned) [Example 252B, 4-amino-5-methyl-2-[1-(3,3,4,4,4-pentafluorobutyl)-1H-pyrazolo[3,4-b]pyridin-3-yl]-5-[3-(2H-tetrazol-5-yl)phenyl]-5,7-dihydro-6H-pyrrolo[2,3-d] pyrimidin-6-one] | – | 2460 | 0.292 | –
8 | Cc1ccccc1Cn1nc(-c2nc(N)c3c(n2)NC(=O)[C@@]3(C)c2ccc(CCC(=O)O)cc2)c2ccc(Cl)cc21 [Example 68B, (S)-3-(4-{4-amino-2-[6-chloro-1-(2-methylbenzyl)-1H-indazol-3-yl]-5-methyl-6-oxo-6,7-dihydro-5H-pyrrolo[2,3-d]pyrimidin-5-yl}phenyl)propanoic acid] | 109 | 568 | 3.1 | –
9 | C[C@@]1(c2ccc(CCC(=O)O)cc2)C(=O)Nc2nc(-c3nn(CCCC(F)(F)F)c4ncccc34)nc(N)c21 [Example 15B, (S)-3-(4-{4-amino-5-methyl-6-oxo-2-[1-(4,4,4-trifluorobutyl)-1H-pyrazolo[3,4-b]pyridin-3-yl]-6,7-dihydro-5H-pyrrolo[2,3-d]pyrimidin-5-yl}phenyl)propanoic acid] | 95 | 1320 | 0.455 | –
10 | Cc1ccnc(Cn2nc(-c3nc(N)c4c(n3)NC(=O)[C@@]4(C)c3nc(CC(C)(C)C(=O)O)cs3)c3ccc(Cl)cc32)c1F [Example 216A, (S)-3-(2-{4-amino-2-[6-chloro-1-((3-fluoro-4-methyl-pyridin-2-yl)methyl)-1H-indazol-3-yl]-5-methyl-6-oxo-6,7-dihydro-5H-pyrrolo[2,3-d]pyrimidin-5-yl} 1,3-thiazol-4-yl)-2,2-dimethyl-propanoic acid] | 132 | 678 | 0.11 | –
11 | CC(C)(Cn1cc(C2(C)C(=O)Nc3nc(-c4nn(CCC(F)(F)C(F)(F)F)c5ncccc45)nc(N)c32)cn1)C(=O)O (centres unmarked) [Example 144A, 3-(4-{4-amino-5-methyl-6-oxo-2-[1-(3,3,4,4,4-pentafluorobutyl)-1H-pyrazolo[3,4-b]pyridin-3-yl]-6,7-dihydro-5H-pyrrolo [2,3-d]pyrimidin-5-yl}-1H-pyrazol-1-yl)-2,2-dimethyl-propanoic acid] | 93.1 | 1220 | 0.594 | –
12 | CC1(c2cccc(C(=O)O)c2)C(=O)Nc2nc(-c3nn(CCC(F)(F)C(F)(F)F)c4cc(Cl)ccc34)nc(N)c21 (centres unmarked) [Example 26B, 3-{4-amino-2-[6-chloro-1-(3,3,4,4,4-pentafluorobutyl)-1H-indazol-3-yl]-5-methyl-6-oxo-6,7-dihydro-5H-pyrrolo[2,3-d]pyrimidin-5-yl}benzoic acid] | 102 | 1920 | 0.266 | –
13 | CC1(c2ccc(CCC(=O)O)c(C#N)c2)C(=O)Nc2nc(-c3nn(CCC(F)(F)C(F)(F)F)c4cc(Cl)ccc34)nc(N)c21 (centres unmarked) [Example 120B, 3-(4-{4-Amino-2-[6-chloro-1-(3,3,4,4,4-pentafluorobutyl)-1H-indazol-3-yl]-5-methyl-6-oxo-6,7-dihydro-5H-pyrrolo[2,3-d]pyrimidin-5-yl}-2-cyanophenyl)propanoic acid] | 127 | 1930 | 0.41 | –

Now those with a lower EC50 [1], led by results:

Row | Emax [1] [%] | EC50 [1] [nM] | Ki [2] [nM] | % Activation [1] [%] | Compound
14 | – | 89 | 0.074 | 109.2 | CC1CCC(Cn2nc(-c3nc(N)c4c(n3)NC(=O)C4(C)c3nc(CC(C)(C)C(=O)O)co3)c3ccc(Cl)cc32)CC1 (single isomer, unassigned) [Example 132AB, 3-{2-[4-amino-2-{6-chloro-1-[4-methylcyclohexylmethyl]-1H-indazol-3-yl}-5-methyl-6-oxo-6,7-dihydro-5H-pyrrolo[2,3-d]pyrimidin-5-yl]-1,3-oxazol-4-yl}-2,2-dimethylpropanoic acid]
15 | 109 | 125 | 0.105 | – | CC1CCC(Cn2nc(-c3nc(N)c4c(n3)NC(=O)C4(C)c3nc(CC(C)(C)C(=O)O)co3)c3ccc(Cl)cc32)CC1 (single isomer, unassigned) [Example 132AA, 3-{2-[4-amino-2-{6-chloro-1-[4-methylcyclohexylmethyl]-1H-indazol-3-yl}-5-methyl-6-oxo-6,7-dihydro-5H-pyrrolo[2,3-d]pyrimidin-5-yl]-1,3-oxazol-4-yl}-2,2-dimethylpropanoic acid]
16 | 141 | 204 | 0.083 | – | Cc1cccc(Cn2nc(-c3nc(N)c4c(n3)NC(=O)C4(C)c3nc(CC(C)(C)C(=O)O)co3)c3ccccc32)c1F (centres unmarked) [Example 233A, 3-(2-{4-amino-2-[1-(2-fluoro-3-methylbenzyl)-1H-indazol-3-yl]-5-methyl-6-oxo-6,7-dihydro-5H-pyrrolo[2,3-d]pyrimidin-5-yl}-1,3-oxazol-4-yl)-2,2-dimethyl-propanoic acid]
17 | 93.5 | 161 | 0.17 | – | CC1(c2nc(-c3ccc(C(=O)O)cc3)cs2)C(=O)Nc2nc(-c3nn(CCC(F)(F)C(F)(F)F)c4cc(Cl)ccc34)nc(N)c21 (centres unmarked) [Example 156A, 4-(2-{4-amino-2-[6-chloro-1-(3,3,4,4,4-penta-fluorobutyl)-1H-indazol-3-yl]-5-methyl-6-oxo-6,7-dihydro-5H-pyrrolo[2,3-d]pyrimidin-5-yl}-1,3-thiazol-4-yl)benzoic acid]
18 | 109 | 299 | 0.066 | – | CC1(c2cccc(CCC(=O)O)c2)C(=O)Nc2nc(-c3nn(Cc4ccccc4F)c4cc(F)ccc34)nc(N)c21 (centres unmarked) [Example 61A, 3-(3-{4-amino-2-[6-fluoro-1-(2-fluorobenzyl)-1H-indazol-3-yl]-5-methyl-6-oxo-6,7-dihydro-5H-pyrrolo[2,3-d]pyrimidin-5-yl}phenyl)propanoic acid]
19 | – | 330 | 0.182 | 107 | CC1CCC(Cn2nc(-c3nc(N)c4c(n3)NC(=O)[C@@]4(C)c3ccc(CCC(=O)O)cc3)c3ccc(Cl)cc32)CC1 (single isomer, unassigned) [Example 5BB]
20 | 106 | 125 | 0.162 | – | CC(C)(CCc1coc(C2(C)C(=O)Nc3nc(-c4nn(Cc5cccc(F)c5)c5cc(F)ccc45)nc(N)c32)n1)C(=O)O (centres unmarked) [Example 197B, 4-(2-{4-amino-2-[6-fluoro-1-(3-fluorobenzyl)-1H-indazol-3-yl]-5-methyl-6-oxo-6,7-dihydro-5H-pyrrolo[2,3-d]pyrimidin-5-yl}-1,3-oxazol-4-yl)-2,2-dimethyl-butanoic acid]
21 | 78.2 | 11 | 0.252 | – | CC1CCC(Cn2nc(-c3nc(N)c4c(n3)NC(=O)[C@@]4(C)c3nc(CC(C)(C)C(=O)O)cs3)c3ccc(F)cc32)CC1 (single isomer, unassigned) [Example 136AA]
